Measured values from ChEMBL document CHEMBL5223109, “The discovery of BMS-737 as a potent, CYP17 lyase-selective inhibitor for the treatment of castration-resistant prostate cancer” (Bioorg Med Chem Lett, 2022).

Key:
[1] = target: T1, Steroid 17-alpha-hydroxylase/17,20 lyase (Macaca fascicularis, UniProt Q2XVA1); test: In vivo inhibition of CYP17A1 in cynomolgus monkey assessed as decrease in testosterone level in blood at 1 mg/kg, po measured at 8 hrs; format: functional, organism-based
T1 sequence (Q2XVA1 whole entry): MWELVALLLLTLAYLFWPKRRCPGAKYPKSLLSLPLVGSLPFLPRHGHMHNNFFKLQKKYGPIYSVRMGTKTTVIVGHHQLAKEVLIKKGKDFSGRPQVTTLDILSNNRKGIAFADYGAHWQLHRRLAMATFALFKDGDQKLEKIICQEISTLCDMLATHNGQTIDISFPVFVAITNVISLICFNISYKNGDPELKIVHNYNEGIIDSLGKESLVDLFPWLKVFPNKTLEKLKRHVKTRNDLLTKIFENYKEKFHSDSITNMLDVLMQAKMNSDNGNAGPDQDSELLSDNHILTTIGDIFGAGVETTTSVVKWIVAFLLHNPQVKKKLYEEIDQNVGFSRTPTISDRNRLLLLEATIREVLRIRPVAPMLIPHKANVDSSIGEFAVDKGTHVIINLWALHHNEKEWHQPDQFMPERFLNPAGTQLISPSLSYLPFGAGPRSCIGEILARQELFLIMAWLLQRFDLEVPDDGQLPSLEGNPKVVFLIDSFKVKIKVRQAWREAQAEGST

[2] = target: T2, Steroid 17-alpha-hydroxylase/17,20 lyase (Homo sapiens, UniProt P05093); test: Selectivity ratio for inhibition of human CYP17A1 hydroxylase activity to inhibition of human CYP17A1 lyase activity; format: ADME
T2 sequence (P05093 whole entry): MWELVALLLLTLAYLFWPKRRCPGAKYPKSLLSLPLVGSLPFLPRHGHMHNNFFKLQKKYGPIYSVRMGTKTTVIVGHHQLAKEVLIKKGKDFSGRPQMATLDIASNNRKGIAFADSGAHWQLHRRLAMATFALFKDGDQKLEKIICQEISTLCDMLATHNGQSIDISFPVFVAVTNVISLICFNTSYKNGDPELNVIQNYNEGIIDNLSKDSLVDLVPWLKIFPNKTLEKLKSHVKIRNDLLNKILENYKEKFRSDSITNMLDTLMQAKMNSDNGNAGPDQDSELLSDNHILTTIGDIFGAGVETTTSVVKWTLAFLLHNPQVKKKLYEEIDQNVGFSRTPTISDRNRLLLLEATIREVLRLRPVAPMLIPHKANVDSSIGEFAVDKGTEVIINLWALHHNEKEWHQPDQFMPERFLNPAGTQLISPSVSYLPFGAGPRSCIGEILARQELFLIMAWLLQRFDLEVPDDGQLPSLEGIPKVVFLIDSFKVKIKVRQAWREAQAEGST

[3] = target: T1, Steroid 17-alpha-hydroxylase/17,20 lyase; test: Inhibition of cynomolgus monkey adrenal gland CYP17A1; format: ADME, tissue-based
[4] = Metabolic stability in rat liver microsome assessed as half-life; format: ADME; settings: liver microsomes
[5] = target: T1, Steroid 17-alpha-hydroxylase/17,20 lyase; test: Inhibition of cynomolgus monkey CYP17A1 lyase activity; format: ADME
[6] = Volume of distribution at steady state in cynomolgus monkey at 1 mg/kg, iv; format: ADME, organism-based, Macaca fascicularis; settings: in vivo, read-out: Vdss
[7] = target: T1, Steroid 17-alpha-hydroxylase/17,20 lyase; test: Inhibition of cynomolgus monkey CYP17A1 hydroxylase activity; format: ADME
[8] = Inhibition of cynomolgus monkey CYP21A2; format: ADME, Macaca fascicularis
[9] = target: T1, Steroid 17-alpha-hydroxylase/17,20 lyase; test: In vivo inhibition of CYP17A1 in cynomolgus monkey assessed as increase in progesterone level in blood at 1 mg/kg, po measured at 4 hrs; format: functional, organism-based
[10] = target: T3, Nuclear receptor subfamily 1 group I member 2 (Homo sapiens, UniProt O75469); test: Inhibition of PXR (unknown origin)
T3 sequence (O75469 whole entry): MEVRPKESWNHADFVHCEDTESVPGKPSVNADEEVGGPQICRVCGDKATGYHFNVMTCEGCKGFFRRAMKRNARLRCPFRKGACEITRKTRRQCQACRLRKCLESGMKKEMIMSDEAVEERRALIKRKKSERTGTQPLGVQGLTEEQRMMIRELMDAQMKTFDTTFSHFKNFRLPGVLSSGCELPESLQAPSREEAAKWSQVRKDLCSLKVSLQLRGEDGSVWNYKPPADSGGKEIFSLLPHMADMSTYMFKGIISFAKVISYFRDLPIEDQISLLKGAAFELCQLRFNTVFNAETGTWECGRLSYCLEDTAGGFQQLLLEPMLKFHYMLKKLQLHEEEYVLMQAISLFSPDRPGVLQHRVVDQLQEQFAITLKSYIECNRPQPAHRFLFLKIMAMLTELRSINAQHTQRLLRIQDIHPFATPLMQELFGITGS

Cytochrome P450 1A2 = target: T4, Cytochrome P450 1A2 (Homo sapiens, UniProt P05177); test: Inhibition of CYP1A2 (unknown origin); format: ADME
T4 sequence (P05177 whole entry): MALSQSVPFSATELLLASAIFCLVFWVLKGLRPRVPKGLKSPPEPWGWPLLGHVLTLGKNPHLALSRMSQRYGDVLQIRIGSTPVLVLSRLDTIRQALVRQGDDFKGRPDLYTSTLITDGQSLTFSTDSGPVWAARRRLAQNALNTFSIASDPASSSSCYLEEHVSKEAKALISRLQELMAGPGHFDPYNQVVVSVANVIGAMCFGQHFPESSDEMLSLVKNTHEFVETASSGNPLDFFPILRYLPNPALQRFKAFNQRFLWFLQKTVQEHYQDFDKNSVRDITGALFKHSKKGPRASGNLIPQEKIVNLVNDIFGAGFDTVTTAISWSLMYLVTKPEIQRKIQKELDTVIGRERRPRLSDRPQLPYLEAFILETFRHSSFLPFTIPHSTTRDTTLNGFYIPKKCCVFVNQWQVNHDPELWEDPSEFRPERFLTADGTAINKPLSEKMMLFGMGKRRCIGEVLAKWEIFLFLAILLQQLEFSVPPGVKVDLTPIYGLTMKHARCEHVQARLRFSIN

[11] = Metabolic stability in cynomolgus monkey liver microsome assessed as half-life; format: ADME, Macaca fascicularis; settings: liver microsomes
[12] = Permeability across basolateral to apical side in human Caco-2 cells; format: ADME, cell-based; settings: read-out: permeability
[13] = Metabolic stability in human liver microsomes assessed as parent compound remaining relative to control; format: ADME, Microsome
Cytochrome P450 2C9 = Cytochrome P450 2C9 (Homo sapiens, UniProt P11712); test: Inhibition of recombinant human CYP2C9; format: ADME
Cytochrome P450 2C9, sequence (P11712 whole entry): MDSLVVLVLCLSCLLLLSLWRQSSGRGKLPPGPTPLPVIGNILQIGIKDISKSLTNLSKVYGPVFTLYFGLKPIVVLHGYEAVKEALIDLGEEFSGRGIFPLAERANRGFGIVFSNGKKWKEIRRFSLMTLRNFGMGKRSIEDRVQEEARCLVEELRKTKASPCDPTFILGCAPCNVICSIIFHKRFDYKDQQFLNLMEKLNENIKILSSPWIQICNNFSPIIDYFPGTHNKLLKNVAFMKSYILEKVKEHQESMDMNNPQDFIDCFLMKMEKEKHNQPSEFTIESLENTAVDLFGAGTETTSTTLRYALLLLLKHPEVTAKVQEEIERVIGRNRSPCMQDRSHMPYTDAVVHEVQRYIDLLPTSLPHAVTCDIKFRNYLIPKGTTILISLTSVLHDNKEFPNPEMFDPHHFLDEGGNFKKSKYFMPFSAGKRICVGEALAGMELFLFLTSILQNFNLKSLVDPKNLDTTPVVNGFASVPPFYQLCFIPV

[14] = Metabolic stability in human liver microsome assessed as half-life; format: ADME; settings: liver microsomes
[15] = target: T2, Steroid 17-alpha-hydroxylase/17,20 lyase; test: Inhibition of human CYP17A1 hydroxylase activity; format: ADME
[16] = target: T1, Steroid 17-alpha-hydroxylase/17,20 lyase; test: Inhibition of cynomolgus monkey CYP17A1; format: ADME
[17] = target: T1, Steroid 17-alpha-hydroxylase/17,20 lyase; test: In vivo inhibition of CYP17A1 in cynomolgus monkey assessed as fold increase in hydroxyprogesterone level in blood at 1 mg/kg, po measured upto 24 hrs; format: functional, organism-based
[18] = target: T1, Steroid 17-alpha-hydroxylase/17,20 lyase; test: In vivo inhibition of CYP17A1 in cynomolgus monkey assessed as decrease in testosterone level in blood at 1 mg/kg, po measured upto 24 hrs relative to control; format: functional, organism-based; design: scale not given: the % may be the effect or the level left
[19] = Tmax in cynomolgus monkey at 1 mg/kg, po; format: ADME, organism-based, Macaca fascicularis; settings: in vivo
[20] = target: T1, Steroid 17-alpha-hydroxylase/17,20 lyase; test: In vivo inhibition of CYP17A1 in cynomolgus monkey assessed as increase in hydroxyprogesterone level in blood at 1 mg/kg, po measured at 4 hrs; format: functional, organism-based
[21] = Permeability across apical to basolateral side in human Caco-2 cells; format: ADME, cell-based; settings: read-out: permeability

Activity [1]: 43 ng/dL | IC50 [3]: 2 nM | half-life [4]: 72 min | IC50 [5]: 6 nM | Vd [6]: 3.5 L/kg | IC50 [7]: 30 nM | IC50 [8]: > 10 µM | Activity [9]: 27 ng/dL | IC50 [10]: > 50 µM | IC50 (Cytochrome P450 1A2): > 40 µM | half-life [11]: > 120 min | Papp B→A [12]: 21.2 ×10⁻⁶ cm/s | Stability [13]: 100% | IC50 (Cytochrome P450 2C9): > 40 µM | half-life [14]: > 120 min | IC50 [15]: 91 nM | IC50 [16]: 2 nM | fold change (FC) [17]: 14 | Activity [18]: 83% | Tmax [19]: 1 h | Activity [20]: 7.7 ng/dL | Papp A→B [21]: 28.2 ×10⁻⁶ cm/s
SMILES: Nc1ncncc1-c1ccnc2c1cnn2-c1ccc(F)cc1
Ratio [2]: 11
